Assay results published in patent publication US10383819B1, “Method to effect biphasic bioavailability of oral euphoric psychogenic cannabinoids” (Callitas Therapeutics, Inc., priority 2018, dated 2019).

Legend:
[1] = cited from earlier work
Respiratory depression = details: in vivo
Method: The biphasic THC bioavailability, rapid oral absorption of THC, and the delayed, subsequent conversion of THC into 11-OH THC, provide both an immediate euphoric state and an extended euphoric state, 12-18 hours, that could provide a safe drug alternative to opioids. Opioids cause respiratory depression and overdose deaths from respiratory depression relative to opioid dose. This is the rationale of the second reference, and the reason that Massachusetts prioritized recreational cannabis dispensary licenses to areas of high opioid overdose deaths.

[2] = Menthol/1-arginine enhanced oral mucous membrane absorption of THC and euphoric effect
Method: FIG. 1 of Human Cannabinoid Pharmacokinetics, by Marilyn A. Huestis, (www.pubmed.gov/17712819) published as Chem Biodivers. 2007 August: 4(8): 1770-1804. […] This is with 8 inhalations over 10 minutes, in 6 patients. […] The method entails maintaining the menthol/1-arginine/THC coated edible THC in the oral cavity for about 10 minutes before chewing the edible.

[3] = cited from earlier work; remark: listed apart in the source
[4] = menthol/1-arginine enhanced, oral cavity

In the case of `CCCCCc1cc(O)c2c(c1)OC(C)(C)[C@@H]1CCC(CO)=C[C@@H]21` [11-OH THC, 11-hydroxy tetrahydrocannabinol], the “maximum effect (plasma concentration)” value ([1]; 6 hours after ingestion) is listed as 110 micrograms/ml, the “area under the curve (AUC) of plasma concentration relative to THC” value ([1]; after ingestion of THC) is listed as “triple” and the “duration of plasma concentration” value ([1]; after ingestion of THC) is listed as “over 24 hours”. For the same compound, the “plasma concentration at peak effect relative to the peak THC plasma concentration” value ([1]; after ingestion of THC) was “double”, the “time after ingestion up to which an effect is produced” value ([1]; after ingestion of THC) was “up to 15 hours” and the “time of maximum effect after ingestion” value ([1]; after ingestion of THC) was 6 h. The respiratory depression (Respiratory depression) was “do not cause respiratory depression”.

With `CCCCCc1cc(O)c2c(c1)OC(C)(C)[C@@H]1CCC(C)=C[C@@H]21` [THC, delta-9 tetrahydrocannabinol] the “oral mucous membrane absorption of THC relative to the efficacy of smoked/inhaled THC” value [2, 4] was “about 70%”, the “window in which oral mucous membrane absorption occurs” value [2, 4] was 10 to 15 min and the “duration of euphoric effect” value ([2]; orally absorbed THC, depending upon THC dosage) was 4 to 8 h. For the same compound, the “duration of plasma concentration” value ([1]; after ingestion of THC) was 12 h, the “metabolism of inhaled or smoked THC into 11-OH THC” value ([3]; inhaled or smoked) was “not metabolized into 11-OH THC” and the “rise of plasma THC” value ([3]; smoking 3.55% THC cannabis, 8 inhalations over 10 minutes, 6 patients, from 0 in 10 minutes) was 150 micrograms/ml. For the same compound, the respiratory depression (Respiratory depression) was “do not cause respiratory depression”.

In the case of Cannabis, the respiratory depression (Respiratory depression) is reported as “do not cause respiratory depression”.
